Data taken from patent US20240261236A1, “METHODS OF USING NMDA RECEPTOR ANTAGONISTS” (Seelos Therapeutics, Inc., priority 2021, published 2024).

Legend:
[1] = tested on: adults with major depressive disorder (MDD) who are at imminent risk of suicide; test: CADSS dissociation, Phase 2 Part 1
[2] = tested on: adults with major depressive disorder (MDD) who are at imminent risk of suicide; test: C-SSRS, Phase 2 Part 1; conditions: 90 mg IN+SOC; for C-SSRS score (yes or no) for suicidal ideation: 24 hours post-administration, baseline yes
[3] = Hemodynamic effects (blood pressure), Phase 2 Part 1; assay type: in vivo, human; conditions: for Diastolic BP: baseline 79.0; for Systolic BP: baseline 121
Excerpt: (§1) The study schedule is identical for Parts 1 and 2. After admission to the emergency room or hospital, each subject will participate in a 1 to 2 day screening phase, a 16-day treatment phase including SOC during which study drug will be administered 2 times per week, for a total of 5 doses across the 16-day treatment period and a 2-week safety follow-up phase for a total of up to 5 weeks of study participation. Subjects will be treated as inpatients for approximately 7 days (including screening), and assuming the subject meets readiness for discharge criteria, will be discharged on Day 6 to continue the trial as outpatients, provided it is clinically appropriate to do so. Subjects will return to the clinic to receive study drug and to undergo study assessments 2 times per week until Day 16. Subjects will be evaluated for efficacy using multiple psychometric scales and for safety using clinical laboratory assessments, electrocardiograms (ECGs), vital signs, and physical examinations. After the last dose of study drug, subjects will continue to be monitored for safety for 2 weeks, including 4 in-person safety follow-up visits on Days 19, 22, 25/26, and 29/30.

[4] = tested on: adults with major depressive disorder (MDD) who are at imminent risk of suicide; test: MADRS Total, Phase 2 Part 1 open-label; assay type: in vivo, human; conditions: for MADRS mean score: baseline 39.4; for MADRS remission rate (a score of less than 12) / MADRS response rate: summary through Day 29/30
Excerpt: The Montgomery-Åsberg Depression Rating Scale (MADRS) is a diagnostic questionnaire that can be used to measure the severity of a depressive episode in a subject. In some embodiments, the MADRS can be used to measure suicidal ideation. For example, the MADRS includes 10 items directed to the following: 1) apparent sadness (e.g., representing despondency, gloom and despair that is more than just ordinary transient low spirits that is reflected in speech, facial expression, and posture); 2) reported sadness (e.g., representing reports of depressed mood, regardless of whether it is reflected in appearance or not and can include low spirits, despondency or the feeling of being beyond help and without hope); 3) inner tension (e.g., representing feelings of ill-defined discomfort, edginess, inner turmoil, mental tension mounting to either panic, dread or anguish); 4) reduced sleep (e.g., representing the experience of reduced duration or depth of sleep compared to the subject's own normal pattern when well); 5) reduced appetite (e.g., representing the feeling of a loss of appetite compared with when-well); 6) concentration difficulties (e.g., representing difficulties in collecting one's thoughts mounting to an incapacitating lack of concentration); 7) lassitude (e.g., representing difficulty in getting started or slowness in initiating and performing everyday activities); 8) inability to feel (e.g., representing the subjective experience of reduced interest in the surroundings, or activities that normally give pleasure, and the ability to react with adequate emotion to circumstances or people is reduced); 9) pessimistic thoughts (e.g., representing thoughts of guilt, inferiority, self-reproach, sinfulness, remorse and ruin); and 10) suicidal thoughts (e.g., representing the feeling that life is not worth living, that a natural death would be welcome, suicidal thoughts, and preparations for suicide). Each item is rated from 0 units to 6 units, with 0 reflecting that the subject is not at all as described by the item and 6 reflecting that the subject is extremely like what is described by the item. […] As another example, for suicidal thoughts, a score of 0 units can indicate that the subject enjoys life or takes it as it comes; a score of 2 units can indicate that the subject is weary of life and may have fleeting suicidal thoughts; a score of 4 units can indicate that the subject feels he or she would probably be better off dead (e.g., suicidal thoughts are common, and suicide is considered as a possible solution, but without specific plans or intention); and a score of 6 units can indicate that the subject has explicit plans for suicide when there is an opportunity (e.g., the subject has made active preparations for suicide). Thus, the total score, after summation of each score for each item, is on a scale of 0 units to 60 units.
as §1, with “After the last dose of study drug, subjects will continue to be monitored for safety for 2 weeks, including 4 in-person safety follow-up visits on Days 19, 22, 25/26, and 29/30.” left out

[5] = Leung and Baillie 1986; cited from earlier work

CNC1(c2ccccc2Cl)CCCCC1=O (racemic) [intranasal racemic ketamine, 1:1 mixture of the two enantiomers of ketamine: (R)-2-(2-chlorophenyl)-2-(methylamino)cyclohexanone and (S)-2-(2-chlorophenyl)-2-(methylamino)cyclohexanone]
CADSS score ([1]; 90 mg IN+SOC, Subject 1, all assessments, threshold for dissociation >4 units): zero
CADSS score ([1]; 90 mg IN+SOC, Subject 2, 40 minutes post-administration): 2 units
CADSS score ([1]; 90 mg IN+SOC, Subject 2, 1 hour post-administration): zero
clinically relevant dissociation ([1]; 90 mg IN+SOC, Subjects 1 and 2): neither subject exhibited clinically relevant dissociation
clinically meaningful sedation or dissociation ([1]; 90 mg IN+SOC, entire patient cohort to the Day 29/30 endpoint): no clinically meaningful sedation or dissociation
CADSS change from baseline (at 40 minutes) ([1]; Day 4 (after second dose)): 2.3
CADSS change from baseline (at 40 minutes) ([1]; Day 8 (after third dose)): 0.4
subjects with no dissociation (total CADSS score >4 units = dissociation) ([1]; Days 1 and 4): four
subjects reporting dissociation ([1]; after Day 4 (on Day 11 at 40 minutes), 7 subjects): 1 subject
CADSS change from baseline (at 40 minutes) ([1]; after first dose): 3.8
C-SSRS score (yes or no) for suicidal ideation ([2]; Subject 1): no
C-SSRS score (yes or no) for suicidal ideation ([2]; Subject 2): no
C-SSRS scores for suicidal ideation and suicidal behavior ([2]; both subjects, remainder of the study): no
Diastolic BP ([3]; 1 hour post first dose): 80.9
Systolic BP ([3]; 1 hour post first dose): 125.8
Diastolic BP ([3]; 2 hours post first dose): 78.5
Systolic BP ([3]; 2 hours post first dose): 121.3
MADRS Total ([4]; 90 mg IN+SOC, Subject 1, 24 hours post-administration, baseline 35 units): 8 units
MADRS Total ([4]; 90 mg IN+SOC, Subject 2, 24 hours post-administration, baseline 38 units): 15 units
MADRS Total ([4]; 90 mg IN+SOC, Subject 2, Day 8, after second dose on Day 4): 16 units
MADRS Total reduction ([4]; 90 mg IN+SOC, both subjects, 24 hours): > 50%
MADRS mean (SD) change from baseline ([4]; 17 subjects enrolled, 24 hours post-dose): −24.9 (8.34)
MADRS mean (SD) change from baseline ([4]; 17 subjects enrolled, Day 16): −31.6 (7.31)
subjects who experienced MADRS remission ([4]; 24 hours post-dose): 35.5%
subjects who experienced MADRS response ([4]; 24 hours post-dose): 76.5%
MADRS mean score ([4]; Day 1): 14.5
subjects who experienced MADRS remission ([4]; Day 16): 78.6%
subjects who experienced MADRS response ([4]; Day 16): 92.9%
MADRS mean score ([4]; Day 16): 7.4
MADRS mean score ([4]; Day 29): 6.3
MADRS mean (SD) change from baseline ([4]; final follow-up on Day 29/30): −32.1 (7.4)
mean MADRS score ([4]; final follow-up on Day 29/30): 6.3 (6.60)
subjects who experienced MADRS remission ([4]; study end (Day 29/30)): 76.9%
subjects who experienced MADRS response ([4]; study end (Day 29/30)): 100%
MADRS remission rate (a score of less than 12) ([4]; Day 1): 23.5%
MADRS response rate ([4]; Day 1): 76.5%
MADRS remission rate (a score of less than 12) ([4]; Day 16): 78.6%
MADRS response rate ([4]; Day 16): 92.9%
MADRS response rate ([4]; Day 29, 14 days after the last dose on Day 15): 100%
anesthetic activity [5]: anesthetic activity
